Publication PMC4167603 (Nature, 2014)

How the values were obtained:
[1] = target: T1, GABAAR β3 homopentamer (GABAAR-β3cryst) (Homo sapiens, UniProt P28472, DEL333-446/INS332SQPARAA); assay: thermostabilisation of purified receptor; type: binding
T1 sequence (P28472 with tags, fused parts or gaps INS332SQPARAA): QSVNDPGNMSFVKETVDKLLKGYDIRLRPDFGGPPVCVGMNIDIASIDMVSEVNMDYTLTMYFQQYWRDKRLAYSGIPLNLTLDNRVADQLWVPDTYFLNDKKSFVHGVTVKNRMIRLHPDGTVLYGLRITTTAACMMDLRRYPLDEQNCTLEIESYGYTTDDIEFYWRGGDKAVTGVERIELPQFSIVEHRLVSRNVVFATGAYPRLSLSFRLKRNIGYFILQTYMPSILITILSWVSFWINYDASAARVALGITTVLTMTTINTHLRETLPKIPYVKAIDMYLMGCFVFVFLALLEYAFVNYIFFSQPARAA
T1 sequence (P28472 447-473): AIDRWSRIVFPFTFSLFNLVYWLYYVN

[2] = target: T1, GABAAR β3 homopentamer (GABAAR-β3cryst); assay: thermostabilisation of purified receptor; type: binding; remark: listed apart in the source
[3] = target: T1, GABAAR β3 homopentamer (GABAAR-β3cryst); assay: X-ray co-crystal structure; type: cell-based

**Q.** Which EC50 [1] does the source give for NCCc1c[nH]cn1 [histamine] here?
**A.** Its EC50 is 400 ± 150 µM.

**Q.** With N#Cc1nn(-c2c(Cl)cc(C(F)(F)F)cc2Cl)c(N)c1[S+]([O-])C(F)(F)F (stereo not drawn) [fipronil] as the compound, how does the EC50 [2] read?
**A.** Its EC50 is 0.026 ± 0.005 µM.

**Q.** N=C(N)c1ccccc1 [benzamidine] was tested. Which EC50 [3] did it give?
**A.** Its EC50 is 61 ± 12 µM.
